ChEMBL document CHEMBL1143849, “Two new dfr genes in trimethoprim-resistant integron-negative Escherichia coli isolates” (2007)

What was measured:
[1] = test system: Escherichia coli; experiment: Antimicrobial activity against Escherichia coli U21 isolate by disk diffusion test
[2] = test system: Escherichia coli; experiment: Antimicrobial activity against Escherichia coli U93 isolate by disk diffusion test

MIC [1]: > 32 µg/mL
MIC [2]: > 32 µg/mL
Structure (SMILES): COc1cc(Cc2cnc(N)nc2N)cc(OC)c1OC [TRIMETHOPRIM]
